This is an account of results in patent US12441762B2, “Hepatitis c virus NS3/4A protease inhibitors” (priority 2019, dated 2025).

Common to all, as to experiment: biochemical
Assay [1] has as its system HCV NS3/4A protease D168A variant. It counts as biochemical, Hepatitis C virus. To be noted: for Fold Change of D168A Ki with respect to GT1a wild-type: Table S1, value in parentheses. On the procedure: (§1) The HCV GT1a NS3/4A protease gene described in the Bristol Myers Squibb patent was synthesized by GenScript and cloned into a PET28a expression vector. Cys159 was mutated to a serine residue to prevent disulfide bond formation and facilitate crystallization. The D168A gene was engineered using the site-directed mutagenesis protocol from Stratagene. Protein expression and purification were carried out as previously described.
(§2) Km constants for GT1 and D168A protease were previously determined. […] Inner filter effect corrections were applied to the initial velocities (Vo) at each substrate concentration. Vo versus substrate concentration graphs were globally fit to the Michaelis-Menten equation to obtain the Km value.
(§3) For each assay, 2 nM of NS3/4A protease (GT1a and D168A) was pre-incubated at room temperature for 1 h with increasing concentration of inhibitors in assay buffer (50 mM Tris, 5% glycerol, 10 mM DTT, 0.6 mM LDAO, and 4% dimethyl sulfoxide, pH 7.5). Inhibition assays were performed in non-binding surface 96-well black half-area plates (Corning) in a reaction volume of 60 μL. […] Three independent data sets were collected for each inhibitor with each protease construct.

The target in assay [2] is T1, HCV NS3/4A protease D168A variant (Hepatitis C virus genotype 1a, UniProt P27958, C1185S/D1194A).
T1 construct: His-tag (cleaved yes); made in house; host or cells: Escherichia coli BL21(DE3), PET28a vector
T1 sequence (P27958 1027-1208 C1185S/D1194A): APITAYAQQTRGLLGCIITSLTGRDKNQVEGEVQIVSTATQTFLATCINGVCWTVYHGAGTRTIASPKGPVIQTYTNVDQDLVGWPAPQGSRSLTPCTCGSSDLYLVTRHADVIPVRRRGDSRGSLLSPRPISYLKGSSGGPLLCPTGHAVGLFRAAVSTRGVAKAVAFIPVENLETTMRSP
The assay is classed as biochemical. As to the method:
as §1, §2, §3

Assay [3] has as its target T2, wild-type HCV NS3/4A protease (GT1a) (Hepatitis C virus genotype 1a, UniProt P27958, C1185S).
T2 construct: His-tag (cleaved yes); made in house; host or cells: Escherichia coli BL21(DE3), PET28a vector
The assay is classed as biochemical. As to the method: as §1, §2, §3

T2 sequence (P27958 1027-1208 C1185S): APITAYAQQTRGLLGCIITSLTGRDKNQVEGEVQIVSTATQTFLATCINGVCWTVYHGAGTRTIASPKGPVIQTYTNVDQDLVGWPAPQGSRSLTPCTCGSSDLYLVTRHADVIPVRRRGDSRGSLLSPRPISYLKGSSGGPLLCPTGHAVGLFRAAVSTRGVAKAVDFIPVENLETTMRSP

As to `COc1ccc2nc(C)c(O[C@@H]3C[C@H]4C(=O)N[C@]5(C(=O)NS(=O)(=O)C6(C)CC6)C[C@H]5/C=C\CCCCC[C@H](NC(=O)[C@@H](NC(C)=O)C(C)C)C(=O)N4C3)nc2c1` [Inhibitor P4P5-1A, (2R,6S,13aS,14aR,16aS,Z)-6-((S)-2-Acetamido-3-methylbutanamido)-2-((7-methoxy-3-methylquinoxalin-2-yl)oxy)-N-((1-methylcyclopropyl)sulfonyl)-5,16-dioxo-1,2,3,6,7,8,9,10,11,13a,14,15,16,16a-tetradecahydrocyclopropa[e]pyrrolo[1,2-a][1,4]diazacyclopentadecine-14a(5H)-carboxamide], in assay [1], the “Fold Change of D168A Ki with respect to GT1a wild-type” value (“Fold Change of D168A Ki” for short) is reported as “(13) fold”. For the same compound, the values for the Ki in assay [2] and in assay [3] were 141 ± 18 nM and 11.1 ± 0.5 nM, respectively.
The corresponding values for `COC(=O)N[C@H](C(=O)N[C@H]1CCCCC/C=C\[C@@H]2C[C@@]2(C(=O)NS(=O)(=O)C2(C)CC2)NC(=O)[C@@H]2C[C@@H](Oc3nc4cc(OC)ccc4nc3C)CN2C1=O)C(C)C` [Inhibitor P4P5-1B, Methyl ((S)-1-(((2R,6S,13aS,14aR,16aS,Z)-2-((7-methoxy-3-methylquinoxalin-2-yl)oxy)-14a-(((1-methylcyclopropyl)sulfonyl)carbamoyl)-5,16-dioxo-1,2,3,5,6,7,8,9,10,11,13a,14,14a,15,16,16a-hexadecahydrocyclopropa[e]pyrrolo[1,2-a][1,4]diazacyclopentadecin-6-yl)amino)-3-methyl-1-oxobutan-2-yl)carbamate] are “(8) fold”, 102 ± 6.8 nM and 13 ± 0.8 nM.
Regarding `COc1ccc2nc(C)c(O[C@@H]3C[C@H]4C(=O)N[C@]5(C(=O)NS(=O)(=O)C6(C)CC6)C[C@H]5/C=C\CCCCC[C@H](NC(=O)[C@@H](NC(C)=O)C(C)(C)C)C(=O)N4C3)nc2c1` [Inhibitor P4P5-2A, (2R,6S,13aS,14aR,16aS,Z)-6-((S)-2-Acetamido-3,3-dimethylbutanamido)-2-((7-methoxy-3-methylquinoxalin-2-yl)oxy)-N-((1-methylcyclopropyl)sulfonyl)-5,16-dioxo-1,2,3,6,7,8,9,10,11,13a,14,15,16,16a-tetradecahydrocyclopropa[e]pyrrolo[1,2-a][1,4]diazacyclopentadecine-14a(5H)-carboxamide], the “Fold Change of D168A Ki” value in assay [1] is recorded as “(9) fold”. In addition, the Ki in assay [2] stood at 215 ± 16 nM; in assay [3] it was 23.9 ± 1.7 nM.
The corresponding values for `COC(=O)N[C@H](C(=O)N[C@H]1CCCCC/C=C\[C@@H]2C[C@@]2(C(=O)NS(=O)(=O)C2(C)CC2)NC(=O)[C@@H]2C[C@@H](Oc3nc4cc(OC)ccc4nc3C)CN2C1=O)C(C)(C)C` [Inhibitor P4P5-2B, Methyl ((S)-1-(((2R,6S,13aS,14aR,16aS,Z)-2-((7-methoxy-3-methylquinoxalin-2-yl)oxy)-14a-(((1-methylcyclopropyl)sulfonyl)carbamoyl)-5,16-dioxo-1,2,3,5,6,7,8,9,10,11,13a,14,14a,15,16,16a-hexadecahydrocyclopropa[e]pyrrolo[1,2-a][1,4]diazacyclopentadecin-6-yl)amino)-3,3-dimethyl-1-oxobutan-2-yl)carbamate] are “(8) fold”, 201 ± 15 nM and 29.5 ± 1.9 nM.
As for `COc1ccc2nc(C)c(O[C@@H]3C[C@H]4C(=O)N[C@]5(C(=O)NS(=O)(=O)C6(C)CC6)C[C@H]5/C=C\CCCCC[C@H](NC(=O)[C@@H](NC(C)=O)C5CCCC5)C(=O)N4C3)nc2c1` [Inhibitor P4P5-3A, (2R,6S,13aS,14aR,16aS, Z)-6-((S)-2-acetamido-2-cyclopentylacetamido)-2-((7-methoxy-3-methylquinoxalin-2-yl)oxy)-N-((1-methylcyclopropyl)sulfonyl)-5,16-dioxo-1,2,3,6,7,8,9,10,11,13a,14,15,16,16a-tetradecahydrocyclopropa[e]pyrrolo[1,2-a][1,4]diazacyclopentadecine-14a(5H)-carboxamide], the “Fold Change of D168A Ki” value in assay [1] is reported as “(39) fold”. Besides, in assay [1] (acetamide (3A) vs methyl carbamate (3B)), the “fold less potent than the methyl carbamate analog P4P5-3B” value was about 3 fold. Further, the figures for the inhibitory constant (Ki) in assay [2] and in assay [3] were 87.3 nM and 2.23 ± 0.07 nM, respectively.
Regarding `COC(=O)N[C@H](C(=O)N[C@H]1CCCCC/C=C\[C@@H]2C[C@@]2(C(=O)NS(=O)(=O)C2(C)CC2)NC(=O)[C@@H]2C[C@@H](Oc3nc4cc(OC)ccc4nc3C)CN2C1=O)C1CCCC1` [Inhibitor P4P5-3B, Methyl ((S)-1-cyclopentyl-2-(((2R,6S,13aS,14aR,16aS,Z)-2-((7-methoxy-3-methylquinoxalin-2-yl)oxy)-14a-(((1-methylcyclopropyl)sulfonyl)carbamoyl)-5,16-dioxo-1,2,3,5,6,7,8,9,10,11,13a,14,14a,15,16,16a-hexadecahydrocyclopropa[e]pyrrolo[1,2-a][1,4]diazacyclopentadecin-6-yl)amino)-2-oxoethyl)carbamate], the “Fold Change of D168A Ki” value in assay [1] is reported as “(9) fold”. The Ki in assay [2] was 31.6 ± 2.1 nM; in assay [3] it was 3.54 ± 0.13 nM.
With `COc1ccc2nc(C(F)(F)F)c(O[C@@H]3C[C@H]4C(=O)N[C@]5(C(=O)NS(=O)(=O)C6(C)CC6)C[C@H]5/C=C\CCCCC[C@H](NC(=O)OCC(C)C)C(=O)N4C3)nc2c1` [NR02-41, Isobutyl ((2R,6S,13aS,14aR,16aS,Z)-2-((7-methoxy-3-(trifluoromethyl)quinoxalin-2-yl)oxy)-14a-(((1-methylcyclopropyl)sulfonyl)carbamoyl)-5,16-dioxo-1,2,3,5,6,7,8,9,10,11,13a,14,14a,15,16,16a-hexadecahydrocyclopropa[e]pyrrolo[1,2-a][1,4]diazacyclopentadecin-6-yl)carbamate], the Ki worked out at 14.9 ± 1.4 nM in assay [2] and 4.01 ± 0.46 nM in assay [3].
The corresponding values for `CCC(C)(C)OC(=O)N[C@H]1CCCCC/C=C\[C@@H]2C[C@@]2(C(=O)NS(=O)(=O)C2(C)CC2)NC(=O)[C@@H]2C[C@@H](Oc3nc4cc(OC)ccc4nc3C(F)(F)F)CN2C1=O` [NR02-47, tert-Pentyl ((2R,6S,13aS,14aR,16aS,Z)-2-((7-methoxy-3-(trifluoromethyl)quinoxalin-2-yl)oxy)-14a-(((1-methylcyclopropyl)sulfonyl)carbamoyl)-5,16-dioxo-1,2,3,5,6,7,8,9,10,11,13a,14,14a,15,16,16a-hexadecahydrocyclopropa[e]pyrrolo[1,2-a][1,4]diazacyclopentadecin-6-yl)carbamate] are 15.1 ± 1 nM and 2.67 ± 0.23 nM.
As to `COc1ccc2nc(C(F)(F)F)c(O[C@@H]3C[C@H]4C(=O)N[C@]5(C(=O)NS(=O)(=O)C6(C)CC6)C[C@H]5/C=C\CCCCC[C@H](NC(=O)OCC(C)(C)C)C(=O)N4C3)nc2c1` [NR02-48, Neopentyl ((2R,6S,13aS,14aR,16aS,Z)-2-((7-methoxy-3-(trifluoromethyl)quinoxalin-2-yl)oxy)-14a-(((1-methylcyclopropyl)sulfonyl)carbamoyl)-5,16-dioxo-1,2,3,5,6,7,8,9,10,11,13a,14,14a,15,16,16a-hexadecahydrocyclopropa[e]pyrrolo[1,2-a][1,4]diazacyclopentadecin-6-yl)carbamate], the Ki is 13 ± 1.6 nM in assay [2] and 2.94 ± 0.14 nM in assay [3].
The corresponding values for `COc1ccc2nc(C)c(O[C@@H]3C[C@H]4C(=O)N[C@]5(C(=O)NS(=O)(=O)C6(C)CC6)C[C@H]5/C=C\CCCCC[C@H](NC(=O)OCC5(C(F)(F)F)CC5)C(=O)N4C3)nc2c1` [NR02-49, (1-(Trifluoromethyl)cyclopropyl)methyl ((2R,6S,13aS,14aR,16aS,Z)-2-((7-methoxy-3-methylquinoxalin-2-yl)oxy)-14a-(((1-methylcyclopropyl)sulfonyl)carbamoyl)-5,16-dioxo-1,2,3,5,6,7,8,9,10,11,13a,14,14a,15,16,16a-hexadecahydrocyclopropa[e]pyrrolo[1,2-a][1,4]diazacyclopentadecin-6-yl)carbamate] are 27.4 ± 1.2 nM and 0.9 ± 0.1 nM.
The corresponding values for `COc1ccc2nc(C(F)(F)F)c(O[C@@H]3C[C@H]4C(=O)N[C@]5(C(=O)NS(=O)(=O)C6(C)CC6)C[C@H]5/C=C\CCCCC[C@H](NC(=O)OCC5(C(F)(F)F)CC5)C(=O)N4C3)nc2c1` [NR02-50, (1-(Trifluoromethyl)cyclopropyl)methyl ((2R,6S,13aS,14aR,16aS,Z)-2-((7-methoxy-3-(trifluoromethyl)quinoxalin-2-yl)oxy)-14a-(((1-methylcyclopropyl)sulfonyl)carbamoyl)-5,16-dioxo-1,2,3,5,6,7,8,9,10,11,13a,14,14a,15,16,16a-hexadecahydrocyclopropa[e]pyrrolo[1,2-a][1,4]diazacyclopentadecin-6-yl)carbamate] are 39.5 ± 5.1 nM and 3.46 ± 0.26 nM.
The corresponding values for `CCC(CC)OC(=O)N[C@H]1CCCCC/C=C\[C@@H]2C[C@@]2(C(=O)NS(=O)(=O)C2(C)CC2)NC(=O)[C@@H]2C[C@@H](Oc3nc4cc(OC)ccc4nc3C(F)(F)F)CN2C1=O` [NR02-52, Pentan-3-yl ((2R,6S,13aS,14aR,16aS,Z)-2-((7-methoxy-3-(trifluoromethyl)quinoxalin-2-yl)oxy)-14a-(((1-methylcyclopropyl)sulfonyl)carbamoyl)-5,16-dioxo-1,2,3,5,6,7,8,9,10,11,13a,14,14a,15,16,16a-hexadecahydrocyclopropa[e]pyrrolo[1,2-a][1,4]diazacyclopentadecin-6-yl)carbamate] are 20.9 ± 2.1 nM and 4.6 ± 0.66 nM.

The Ki is a measure of affinity in units of concentration, obtained from inhibition or displacement.
